Here are results for one compound from article PMC6193938, “Characterization of a novel AICARFT inhibitor which potently elevates ZMP and has anti-tumor activity in murine models” (Scientific Reports, 2018).

The term inhibition denotes the change of the read-out against control, counted positive when it falls.

For one assay, the target named is T1, FLT3 (Homo sapiens, UniProt P36888).
T1 construct: purchased CEREP Panlabs (Eurofins)
T1 sequence (P36888 27-993): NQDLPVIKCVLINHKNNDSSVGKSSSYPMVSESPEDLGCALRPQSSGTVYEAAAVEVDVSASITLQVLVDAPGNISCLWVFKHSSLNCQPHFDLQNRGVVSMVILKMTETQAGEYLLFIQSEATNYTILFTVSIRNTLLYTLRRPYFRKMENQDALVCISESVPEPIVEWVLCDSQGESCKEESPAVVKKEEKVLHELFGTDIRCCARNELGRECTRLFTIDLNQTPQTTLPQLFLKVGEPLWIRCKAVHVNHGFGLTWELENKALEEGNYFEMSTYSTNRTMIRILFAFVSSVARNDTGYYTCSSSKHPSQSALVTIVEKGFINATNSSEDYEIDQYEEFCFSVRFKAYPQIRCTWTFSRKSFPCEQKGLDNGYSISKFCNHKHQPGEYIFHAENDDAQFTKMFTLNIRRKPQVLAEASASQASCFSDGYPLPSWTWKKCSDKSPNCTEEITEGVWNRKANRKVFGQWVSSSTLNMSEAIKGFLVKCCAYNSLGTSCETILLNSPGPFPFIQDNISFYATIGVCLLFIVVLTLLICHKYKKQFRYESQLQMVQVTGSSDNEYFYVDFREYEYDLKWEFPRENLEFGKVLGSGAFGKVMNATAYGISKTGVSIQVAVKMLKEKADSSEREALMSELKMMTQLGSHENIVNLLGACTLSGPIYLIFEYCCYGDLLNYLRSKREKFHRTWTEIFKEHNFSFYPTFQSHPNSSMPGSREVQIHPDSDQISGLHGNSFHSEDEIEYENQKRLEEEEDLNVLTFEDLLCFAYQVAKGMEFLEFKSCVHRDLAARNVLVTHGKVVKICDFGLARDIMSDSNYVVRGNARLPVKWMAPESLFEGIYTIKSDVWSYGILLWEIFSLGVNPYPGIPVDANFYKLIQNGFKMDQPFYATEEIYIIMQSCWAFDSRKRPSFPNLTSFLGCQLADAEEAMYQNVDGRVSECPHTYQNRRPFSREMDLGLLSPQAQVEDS
Briefly: CEREP protein kinase assay. The format is biochemical.

The target of a further assay is T2, NEK2 (Homo sapiens, UniProt P51955).
T2 construct: purchased CEREP Panlabs (Eurofins)
T2 sequence (P51955 1-445): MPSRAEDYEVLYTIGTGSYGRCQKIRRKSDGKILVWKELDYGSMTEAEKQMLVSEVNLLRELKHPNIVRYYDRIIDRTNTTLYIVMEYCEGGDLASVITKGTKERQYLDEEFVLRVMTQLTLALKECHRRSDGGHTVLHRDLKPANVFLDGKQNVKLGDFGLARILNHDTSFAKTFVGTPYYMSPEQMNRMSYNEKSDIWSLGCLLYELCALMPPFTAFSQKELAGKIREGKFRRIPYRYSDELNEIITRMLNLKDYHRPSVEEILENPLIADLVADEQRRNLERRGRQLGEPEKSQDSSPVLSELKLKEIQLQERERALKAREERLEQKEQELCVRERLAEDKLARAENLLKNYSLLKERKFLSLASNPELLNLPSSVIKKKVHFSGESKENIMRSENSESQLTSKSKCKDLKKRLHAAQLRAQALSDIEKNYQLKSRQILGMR
Briefly: CEREP protein kinase assay. The format is biochemical.

The target in another assay is T3, TAK1 (Homo sapiens, UniProt O43318).
T3 construct: purchased CEREP Panlabs (Eurofins)
T3 sequence (O43318 1-303 limits assumed): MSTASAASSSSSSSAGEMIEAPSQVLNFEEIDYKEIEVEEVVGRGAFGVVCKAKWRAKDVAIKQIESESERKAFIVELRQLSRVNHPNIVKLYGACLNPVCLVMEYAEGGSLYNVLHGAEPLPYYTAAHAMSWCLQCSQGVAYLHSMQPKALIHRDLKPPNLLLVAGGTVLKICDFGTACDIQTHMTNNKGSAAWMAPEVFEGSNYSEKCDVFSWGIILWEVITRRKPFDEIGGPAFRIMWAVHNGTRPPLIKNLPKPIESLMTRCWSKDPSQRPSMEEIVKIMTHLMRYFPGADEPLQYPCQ
T3 sequence (Q15750 437-504 partner limits assumed): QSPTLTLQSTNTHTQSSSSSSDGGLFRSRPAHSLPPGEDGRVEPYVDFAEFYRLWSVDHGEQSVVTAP
Put plainly: CEREP protein kinase assay. The format is biochemical.

The target of the next assay is T4, CDK4 (Homo sapiens, UniProt P11802).
T4 construct: purchased CEREP Panlabs (Eurofins)
T4 sequence (P11802 whole entry): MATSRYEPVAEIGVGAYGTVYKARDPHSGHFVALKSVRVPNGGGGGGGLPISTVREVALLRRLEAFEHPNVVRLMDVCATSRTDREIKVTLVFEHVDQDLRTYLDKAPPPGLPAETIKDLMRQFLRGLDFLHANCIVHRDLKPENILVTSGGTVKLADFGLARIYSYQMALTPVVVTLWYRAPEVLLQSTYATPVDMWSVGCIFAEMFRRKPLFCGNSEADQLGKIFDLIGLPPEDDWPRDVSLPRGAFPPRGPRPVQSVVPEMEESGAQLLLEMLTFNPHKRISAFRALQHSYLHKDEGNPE
T4 sequence (P24385 whole entry partner): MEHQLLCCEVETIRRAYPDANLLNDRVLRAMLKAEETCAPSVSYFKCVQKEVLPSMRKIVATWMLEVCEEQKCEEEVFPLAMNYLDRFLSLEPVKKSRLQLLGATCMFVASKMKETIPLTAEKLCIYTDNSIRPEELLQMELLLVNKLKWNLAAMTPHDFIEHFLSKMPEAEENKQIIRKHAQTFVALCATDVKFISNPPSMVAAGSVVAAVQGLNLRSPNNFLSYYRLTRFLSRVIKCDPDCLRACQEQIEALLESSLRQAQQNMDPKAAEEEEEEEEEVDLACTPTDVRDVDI
Put plainly: CEREP protein kinase assay. Format: biochemical.

A further assay has as its target T5, CK2 (Homo sapiens, UniProt P68400).
T5 construct: purchased CEREP Panlabs (Eurofins)
Briefly: CEREP protein kinase assay. Format: biochemical.

The subject of another assay is MDA-MB-231met2 xenograft. Put plainly: Antitumor efficacy and tumor metabolites, mouse xenograft. As to conditions: after 22 days of dosing. The format is in vivo.
Another assay deals with T6, TRKB (Homo sapiens, UniProt Q16620).
T6 construct: purchased CEREP Panlabs (Eurofins)
T6 sequence (Q16620 32-822): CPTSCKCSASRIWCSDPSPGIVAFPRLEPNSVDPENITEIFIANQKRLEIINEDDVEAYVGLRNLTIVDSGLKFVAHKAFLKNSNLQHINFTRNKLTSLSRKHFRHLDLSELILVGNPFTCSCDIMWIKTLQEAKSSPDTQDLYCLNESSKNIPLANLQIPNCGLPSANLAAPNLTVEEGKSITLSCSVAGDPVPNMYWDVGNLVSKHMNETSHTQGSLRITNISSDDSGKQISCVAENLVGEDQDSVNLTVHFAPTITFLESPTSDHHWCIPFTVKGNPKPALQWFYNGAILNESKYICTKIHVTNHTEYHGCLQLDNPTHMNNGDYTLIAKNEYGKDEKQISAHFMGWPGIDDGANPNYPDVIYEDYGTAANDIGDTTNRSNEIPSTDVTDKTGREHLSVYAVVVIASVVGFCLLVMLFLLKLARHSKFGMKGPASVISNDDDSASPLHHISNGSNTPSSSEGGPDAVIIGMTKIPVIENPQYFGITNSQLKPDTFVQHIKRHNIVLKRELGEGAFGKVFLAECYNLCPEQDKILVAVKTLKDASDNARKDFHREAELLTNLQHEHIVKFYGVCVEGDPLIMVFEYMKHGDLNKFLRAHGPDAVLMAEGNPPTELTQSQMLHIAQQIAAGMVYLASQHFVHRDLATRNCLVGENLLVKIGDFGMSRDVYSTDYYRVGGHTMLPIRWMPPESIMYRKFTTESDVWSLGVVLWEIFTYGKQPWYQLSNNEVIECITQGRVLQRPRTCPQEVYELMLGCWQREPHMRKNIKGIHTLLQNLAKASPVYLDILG
Briefly: CEREP protein kinase assay. The format is biochemical.

The target of a further assay is T7, HER2 (Homo sapiens, UniProt P04626).
T7 construct: purchased CEREP Panlabs (Eurofins)
T7 sequence (P04626 23-1255): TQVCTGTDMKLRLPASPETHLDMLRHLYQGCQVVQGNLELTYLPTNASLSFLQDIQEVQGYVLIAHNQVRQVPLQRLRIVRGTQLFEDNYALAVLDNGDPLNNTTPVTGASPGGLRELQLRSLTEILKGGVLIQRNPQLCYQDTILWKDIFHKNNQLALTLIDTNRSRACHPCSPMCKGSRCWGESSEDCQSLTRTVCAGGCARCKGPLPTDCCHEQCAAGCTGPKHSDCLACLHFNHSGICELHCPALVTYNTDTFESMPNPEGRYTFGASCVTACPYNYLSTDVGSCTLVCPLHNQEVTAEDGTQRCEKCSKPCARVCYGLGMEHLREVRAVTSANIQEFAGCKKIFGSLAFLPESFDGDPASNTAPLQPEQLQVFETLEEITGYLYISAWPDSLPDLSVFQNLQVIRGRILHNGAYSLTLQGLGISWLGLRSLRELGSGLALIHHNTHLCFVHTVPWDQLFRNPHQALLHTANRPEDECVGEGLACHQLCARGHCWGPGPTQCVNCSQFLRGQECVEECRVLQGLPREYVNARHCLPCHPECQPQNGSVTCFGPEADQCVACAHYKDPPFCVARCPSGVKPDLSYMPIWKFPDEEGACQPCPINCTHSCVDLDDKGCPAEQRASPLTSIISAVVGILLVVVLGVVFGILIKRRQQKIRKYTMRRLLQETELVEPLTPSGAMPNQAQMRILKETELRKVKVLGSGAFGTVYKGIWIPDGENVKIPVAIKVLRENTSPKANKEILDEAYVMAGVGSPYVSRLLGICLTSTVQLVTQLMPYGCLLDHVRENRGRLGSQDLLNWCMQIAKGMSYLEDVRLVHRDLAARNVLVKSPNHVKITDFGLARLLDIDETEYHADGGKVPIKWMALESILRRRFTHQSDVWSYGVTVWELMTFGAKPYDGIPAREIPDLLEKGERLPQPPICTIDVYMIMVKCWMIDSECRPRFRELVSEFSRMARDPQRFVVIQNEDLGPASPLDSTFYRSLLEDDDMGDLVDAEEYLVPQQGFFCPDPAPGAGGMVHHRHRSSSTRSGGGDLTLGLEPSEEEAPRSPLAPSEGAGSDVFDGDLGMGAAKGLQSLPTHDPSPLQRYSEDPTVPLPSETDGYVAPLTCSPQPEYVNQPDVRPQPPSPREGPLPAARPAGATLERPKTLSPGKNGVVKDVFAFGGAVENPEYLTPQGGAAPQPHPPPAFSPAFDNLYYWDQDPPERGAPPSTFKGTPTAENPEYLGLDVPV
Briefly: CEREP protein kinase assay. Format: biochemical.

T5 sequence (P68400 whole entry): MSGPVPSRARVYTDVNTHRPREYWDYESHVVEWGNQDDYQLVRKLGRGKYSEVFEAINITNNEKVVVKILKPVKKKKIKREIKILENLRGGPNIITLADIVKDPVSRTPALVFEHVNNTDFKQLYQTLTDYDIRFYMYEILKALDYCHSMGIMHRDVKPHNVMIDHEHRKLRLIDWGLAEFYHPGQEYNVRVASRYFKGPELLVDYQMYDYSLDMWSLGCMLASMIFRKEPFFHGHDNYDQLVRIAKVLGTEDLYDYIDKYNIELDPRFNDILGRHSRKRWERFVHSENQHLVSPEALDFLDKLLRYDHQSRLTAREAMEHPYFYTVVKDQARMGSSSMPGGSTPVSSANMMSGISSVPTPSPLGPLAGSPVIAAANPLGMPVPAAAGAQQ

On to `O=c1[nH]ccc2cc(F)c(NS(=O)(=O)c3ccc(N4CC[C@@H](O)C4)s3)cc12` [LSN3213128, N-(6-Fluoro-1-oxo-1,2-dihydroisoquinolin-7-yl)-5-[(3R)-3-hydroxypyrrolidin-1-yl]thiophene-2-sulfonamide], for which the inhibition at 0.2 µM was -12.1% on FLT3 (@ 0.2 uM); -9.52% on NEK2 (@ 0.2 uM); -0.355% against TAK1 (@ 0.2 uM); -1.51% against CDK4 (@ 0.2 uM); -7.53% on CK2 (@ 0.2 uM); 2.14% against TRKB (@ 0.2 uM). Moreover, the inhibition at 0.2 µM against HER2 (@ 0.2 uM) came out at 6.55%. The inhibition at 2 µM against FLT3 (@ 2 uM) was 10.7%; at NEK2 (@ 2 uM), 5.24%; on TAK1 (@ 2 uM), 4.6%; against CDK4 (@ 2 uM) it was 2.45%; against CK2 (@ 2 uM) it was -0.227%; against TRKB (@ 2 uM) it was 3.76%. Further, the inhibition at 2 µM on HER2 (@ 2 uM) was found to be 12.4%. Further, the inhibition at 20 µM at FLT3 (@ 20 uM) is 53.2%; against NEK2 (@ 20 uM), -6.75%; at TAK1 (@ 20 uM), 19.3%; against CDK4 (@ 20 uM), 37.2%; on CK2 (@ 20 uM) it was 1.58%; against TRKB (@ 20 uM), 20.3%. Besides, on HER2 (@ 20 uM), the inhibition at 20 µM is 9.08%. Moreover, the “tumor ZTP” value in the assay on MDA-MB-231met2 xenograft (MDA-MB-231met2 tumors) is recorded as “No detectable changes”. The “tumor ZMP levels” value with MDA-MB-231met2 xenograft (MDA-MB-231 met2 tumors, 30 and 60 mg/kg) is listed as “dramatically elevated”.
